Key:
NZB/W F1 mice [1] = assay: IFNα-accelerated NZB/W F1 mouse SLE model; format: in vivo
Protocol: (§1) All protocols and procedures were conducted according to German animal protection law (Tierschutzgesetz) and were approved by the local veterinarian authorities (Regierungspräsidium, Darmstadt, Germany). Ten-week-old female NZB/W F1 mice (Jackson Laboratories, Bar Harbor, ME, USA) were given a single i.v. injection of 1 × 10^8 IU/100 μl of AdV-IFN-α (adenovirus with mmIfna5_v1 insert, Biofocus, CoA.NL.09.160) in saline or left untreated (sham). Drug treatments were either initiated at 2 weeks (early intervention regimen) or 4 weeks (late intervention regimen) post AdV-IFN-α delivery until the end of the experiment (at 10 weeks). […] Serum and urine samples were collected for anti-dsDNA antibodies (by ELISA) and urinary protein creatinine ratio (UPCR) (measured by ADVIA 1800) determination, respectively, on the days indicated. Proteinuria is defined as UPCR >3.

NZB/W F1 mice [2] = assay: Lymphocyte subsets in spleen at end of treatment, accelerated NZB/W F1 SLE model; format: in vivo, mouse; details: MMF 300 mg/kg once daily, early intervention
Protocol: as §1

CD69 on B220+ B cells = assay: Ex vivo anti-IgD-induced CD69 up-regulation in the SLE model; parameters: species or system mouse; details: once daily for 2 weeks, 1 h after last dosing
BXSB mice = tested on: BXSB mice; parameters: method as in PMID 24445960; details: cited from earlier work

Row | SMILES | Protection against proteinuria (NZB/W F1 mice [1]; early intervention, MSC2360844 66 mg/kg or MMF 300 mg/kg once daily oral) | Serum anti-dsDNA IgG (NZB/W F1 mice [1]; early treatment, neither statistically significant nor dose-dependent) | No. of cells (×10^6) (mean ± SD): B220^+CD19^+ (total B cells) (NZB/W F1 mice [2]) | No. of cells (×10^6) (mean ± SD): CD3^+ (total T-cells) (NZB/W F1 mice [2]) | No. of cells (×10^6) (mean ± SD): CD138^+ (plasma cells) (NZB/W F1 mice [2]) | No. of cells (×10^6) (mean ± SD): GL-7^+IgG^− (GC B cells) (NZB/W F1 mice [2]) | No. of cells (×10^6) (mean ± SD): IgG^+ (class-switched B cells) (NZB/W F1 mice [2]) | No. of cells (×10^6) (mean ± SD): Total splenocytes (NZB/W F1 mice [2]) | No. of cells (×10^6) (mean ± SD): activated CD4^+ T-cells (NZB/W F1 mice [2]) | No. of cells (×10^6) (mean ± SD): activated CD8^+ T-cells (NZB/W F1 mice [2]) | Ex vivo anti-IgD-induced CD69 surface expression on B220+ B cells (CD69 on B220+ B cells) | Autoantibody production and kidney pathology (BXSB mice)
1 | COc1c(C)c2c(c(O)c1C/C=C(\C)CCC(=O)OCCN1CCOCC1)C(=O)OC2 [MMF, mycophenolate mofetil] | almost completely protected against proteinuria | tendency of serum anti-dsDNA IgG reduction | 20.65 (±6.54) ×10^6 | 21.05 (±6.83) ×10^6 | 0.43 (±0.28) ×10^6 | 0.23 (±0.16) ×10^6 | 0.17 (±0.05) ×10^6 | 46.50 (±25.17) ×10^6 | 5.24 (±2.05) ×10^6 | 0.23 (±0.09) ×10^6 | indistinguishable from untreated mice | –
2 | Cc1ccccc1-n1c(Cn2cnc3c(N)ncnc32)nc2cccc(C)c2c1=O [IC87114] | – | – | – | – | – | – | – | – | – | – | – | decreases autoantibody production and kidney pathology
